This passage reports IC50 results from patent publication US11420970B1 (NOVARTIS AG, priority 2019, dated 2022).

pIC50: −log10 of the molar value. Like-named read-outs stand apart in the source and are kept apart here.

Assay [1] relates to cellular H3K36me2 level in multiple myeloma cell line KMS11 (t(4;14)+). Kind of assay: H3K36me2 cellular FRET assay in KMS11-Par line. Format: cell-based. The settings on record: Homo sapiens, KMS-11, KMS11-Par line, cellular H3K36me2 level, FRET; read-out: H3K36me2 FRET in KMS11-Par. The protocol:
H3K36Me2 Cellular FRET Assay in KMS11-Par Line
Fluorescence Resonance Energy Transfer (FRET) assay was used to test the ability of candidate compound to reduce cellular H3K36me2 level in multiple myeloma cell line KMS11 (t(4;14)+) (Horizon Discovery Ltd.).
Cells were treated with tested compounds at the desired concentration for 48 hours. […] Histone extract was incubated with Eu labeled anti-H3K36me2 antibody (abcam #ab ab9049) and d2 labeled anti-H3 antibody (abcam #ab1791) for 1 hour at room temperature. A Eu labeled anti-H3 antibody (CISBIO #64CUS000) was used for loading control. The abundancy of H3K36me2 or total H3 was measured by fluorescence signal on Perkin Elmer Envison machine.

For the next assay, the target named is NSD2 [1-1365] (Homo sapiens (Human), UniProt O96028). Kind of assay: LC-MS/MS-based NSD2 enzymatic assay (SAH production). Format: biochemical. The settings on record: read-out: NSD2 IC50. In short, it runs like this:
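SAH formed was measured by LC-MS/MS using d4-SAH as internal standard and an SAH calibration curve. Compounds were preincubated 20 min with NSD2 [1-1365] and SAM; mouse-liver nucleosome then started a 90 min room-temperature reaction (8 nM enzyme, 1 μM SAM, 400 nM nucleosome final, pH 8.0), stopped with TFA.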

The subject of assay [2] is cellular H3K36me2 level in multiple myeloma cell line KMS11 (t(4;14)+). In words: H3K36me2 cellular ELISA assay in KMS11-Par line. It counts as cell-based. The settings on record: Homo sapiens, KMS-11; KMS11-Par line, ELISA, 72 hours; read-out: H3K36me2 ELISA in KMS11-Par. In short, it runs like this:
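After 72 h compound exposure, HCl-extracted histones from KMS11 (t(4;14)+) cells were probed by ELISA for H3K36me2 against total H3 with a chemiluminescence read-out. Cells were plated at 1,250/well in Opti-MEM plus B-27 and N2 the day before. A parallel CellTiter-Glo plate tracked viability.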

The test system of assay [3] is cellular H3K36me2 level in thyroid carcinoma cell line CGTH-W-1 (NSD2 E1099K). In words: H3K36me2 cellular ELISA assay in CGTH-W-1 line. It counts as cell-based. The settings on record: Homo sapiens, CGTH-W-1, 72 h, read-out: H3K36me2 ELISA in CGTH-W-1. In short, it runs like this:
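After 72 h compound treatment of NSD2 E1099K-mutant CGTH-W-1 cells, H3K36me2 and total H3 were quantified by ELISA with chemiluminescent read-out. A parallel-seeded plate gave cell viability by CellTiter-Glo.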

Where [4] appears, read: NSD2 biochemical activity, class symbols.

Sequence of NSD2 [1-1365] (O96028 whole entry): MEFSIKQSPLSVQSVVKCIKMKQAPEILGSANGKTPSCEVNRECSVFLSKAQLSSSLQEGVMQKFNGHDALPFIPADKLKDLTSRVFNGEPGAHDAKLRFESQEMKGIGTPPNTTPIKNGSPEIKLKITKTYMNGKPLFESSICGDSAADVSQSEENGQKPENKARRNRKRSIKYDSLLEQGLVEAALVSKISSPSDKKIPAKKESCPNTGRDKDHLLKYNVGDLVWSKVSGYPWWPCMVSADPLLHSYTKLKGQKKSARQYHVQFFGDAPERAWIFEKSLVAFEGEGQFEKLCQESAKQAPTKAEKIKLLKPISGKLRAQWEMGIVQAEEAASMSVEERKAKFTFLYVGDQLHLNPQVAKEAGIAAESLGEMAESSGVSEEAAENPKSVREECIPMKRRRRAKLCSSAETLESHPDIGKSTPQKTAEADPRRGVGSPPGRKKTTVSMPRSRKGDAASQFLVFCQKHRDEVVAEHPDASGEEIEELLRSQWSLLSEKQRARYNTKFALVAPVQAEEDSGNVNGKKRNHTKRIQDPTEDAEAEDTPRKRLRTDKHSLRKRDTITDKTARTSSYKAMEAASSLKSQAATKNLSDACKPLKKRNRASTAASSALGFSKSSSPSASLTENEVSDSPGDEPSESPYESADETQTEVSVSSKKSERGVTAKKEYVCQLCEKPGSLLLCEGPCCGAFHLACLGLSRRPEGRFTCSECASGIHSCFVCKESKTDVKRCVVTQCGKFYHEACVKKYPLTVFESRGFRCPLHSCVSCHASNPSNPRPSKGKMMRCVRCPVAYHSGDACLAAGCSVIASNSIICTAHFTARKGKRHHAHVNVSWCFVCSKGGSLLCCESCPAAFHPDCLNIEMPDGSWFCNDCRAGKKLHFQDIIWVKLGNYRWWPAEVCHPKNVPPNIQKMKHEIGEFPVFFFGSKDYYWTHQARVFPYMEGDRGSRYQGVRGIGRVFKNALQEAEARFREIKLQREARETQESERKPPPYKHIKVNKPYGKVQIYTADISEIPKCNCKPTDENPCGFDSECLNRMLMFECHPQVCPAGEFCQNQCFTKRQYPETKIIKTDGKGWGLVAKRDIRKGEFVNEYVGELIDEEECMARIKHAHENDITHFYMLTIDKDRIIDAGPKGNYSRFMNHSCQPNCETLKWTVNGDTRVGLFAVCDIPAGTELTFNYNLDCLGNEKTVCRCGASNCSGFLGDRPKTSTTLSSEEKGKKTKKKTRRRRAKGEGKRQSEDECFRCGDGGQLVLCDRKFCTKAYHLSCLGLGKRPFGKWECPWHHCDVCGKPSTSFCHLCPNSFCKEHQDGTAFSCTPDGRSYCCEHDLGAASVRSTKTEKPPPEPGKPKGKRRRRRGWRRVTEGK

As to `Nc1ncnc2c1ncn2Cc1cc(-c2ccccc2F)ncc1N1CC[C@@H](F)[C@@H](N)C1` [Example 2, 9-((5-((3S,4R)-3-amino-4-fluoropiperidin-1-yl)-2-(2-fluorophenyl)pyridin-4-yl)methyl)-9H-purin-6-amine], the pIC50 in assay [1] was 4.96; at NSD2 [1-1365] (setting [4]), 6.00 to 8.00.

`Nc1ncnc2c1ncn2Cc1cc(-c2cccc(F)c2)ncc1N1CCC[C@@H](N)C1` [Example 4, (R)-9-((5-(3-aminopiperidin-1-yl)-2-(3-fluorophenyl)pyridin-4-yl)methyl)-9H-purin-6-amine]: the pIC50 in assay [1] is 5.39; at NSD2 [1-1365] (setting [4]), 6.00 to 8.00.

Consider `COc1ccc(-c2cc(Cn3cnc4c(N)ncnc43)c(N3CCC[C@@H](N)C3)cn2)c(F)c1` [Example 6, (R)-9-((5-(3-aminopiperidin-1-yl)-2-(2-fluoro-4-methoxyphenyl)pyridin-4-yl)methyl)-9H-purin-6-amine], for which the pIC50 was 5.00 in assay [1] and 6.00 to 8.00 at NSD2 [1-1365] (setting [4]).

Regarding `N#Cc1ccc(-c2cc(Cn3cnc4c(N)ncnc43)c(N3CCC[C@@H](N)C3)cn2)cc1Cl` [Example 7, (R)-4-(4-((6-amino-9H-purin-9-yl)methyl)-5-(3-aminopiperidin-1-yl)pyridin-2-yl)-2-chlorobenzonitrile], the pIC50 is 4.82 in assay [1] and 6.00 to 8.00 at NSD2 [1-1365] (setting [4]).

For the compound `Nc1ncnc2c1ncn2Cc1cc(-c2cccc(F)c2)ncc1N1CC[C@@H](F)[C@@H](N)C1` [Example 8, 9-((5-((3S,4R)-3-amino-4-fluoropiperidin-1-yl)-2-(3-fluorophenyl)pyridin-4-yl)methyl)-9H-purin-6-amine], the pIC50 in assay [1] is 5.28; on NSD2 [1-1365] (setting [4]), 6.00 to 8.00.

On to `COC[C@@H]1[C@H](N)CCCN1c1cnc(-c2ccc(C#N)c(F)c2)cc1Cn1cnc2c(N)ncnc21` [Example 9], for which the pIC50 in assay [1] is 5.00; on NSD2 [1-1365] (setting [4]), 6.00 to 8.00.

For `COc1ccc(-c2cc(Cn3cnc4c(N)ncnc43)c(N3CC[C@@H](F)[C@@H](N)C3)cn2)c(F)c1` [Example 10, 9-((5-((3S,4R)-3-amino-4-fluoropiperidin-1-yl)-2-(2-fluoro-4-methoxyphenyl)pyridin-4-yl)methyl)-9H-purin-6-amine], the pIC50 in assay [1] was 5.12; on NSD2 [1-1365] (setting [4]), 6.00 to 8.00.

Consider `COc1ccc(-c2cc(Cn3cnc4c(N)ncnc43)c(N3CCC[C@@H](N)C3)cn2)cc1` [Example 11, (R)-9-((5-(3-aminopiperidin-1-yl)-2-(4-methoxyphenyl)pyridin-4-yl)methyl)-9H-purin-6-amine], for which the pIC50 in assay [1] is 4.95; on NSD2 [1-1365] (setting [4]), 6.00 to 8.00.

Take `Nc1ncnc2c1ncn2Cc1cc(-c2cccc(Cl)c2)ncc1N1CC[C@@H](F)[C@@H](N)C1` [Example 12, 9-((5-((3S,4R)-3-amino-4-fluoropiperidin-1-yl)-2-(3-chlorophenyl)pyridin-4-yl)methyl)-9H-purin-6-amine]: the figures for the pIC50 (in assay [1]; at NSD2 [1-1365] (setting [4])) were 4.91 and 6.00 to 8.00, respectively.

With `N#Cc1ccc(-c2cc(Cn3cnc4c(N)ncnc43)c(N3CC[C@@H](F)[C@@H](N)C3)cn2)cc1F` [Example 13, 4-(5-((3S,4R)-3-amino-4-fluoropiperidin-1-yl)-4-((6-amino-9H-purin-9-yl)methyl)pyridin-2-yl)-2-fluorobenzonitrile], the pIC50 in assay [1] was 4.68; at NSD2 [1-1365] (setting [4]), 6.00 to 8.00.

Regarding `COc1ccc(-c2cc(Cn3cnc4c(N)ncnc43)c(N3CCC(OC)C(N)C3)cn2)cc1F` (stereo not drawn) [Example 15, 9-((5-(3-amino-4-methoxypiperidin-1-yl)-2-(3-fluoro-4-methoxyphenyl)pyridin-4-yl)methyl)-9H-purin-6-amine], the pIC50 in assay [1] was 4.73; on NSD2 [1-1365] (setting [4]) it was 6.00 to 8.00.

As for `Nc1ncnc2c1ncn2Cc1cc(-c2cccc(F)c2)ncc1N1CCC(F)(F)C(N)C1` (stereo not drawn) [Example 17, 9-((5-(3-amino-4,4-difluoropiperidin-1-yl)-2-(3-fluorophenyl)pyridin-4-yl)methyl)-9H-purin-6-amine], the pIC50 is 3.81 in assay [1] and below 6.00 on NSD2 [1-1365] (setting [4]).

Turning to `COc1ccc(-c2cc(Cn3cnc4c(N)ncc(Cl)c43)c(N3CCC[C@@H](N)C3)cn2)cc1F` [Example 19, (R)-1-((5-(3-aminopiperidin-1-yl)-2-(3-fluoro-4-methoxyphenyl)pyridin-4-yl)methyl)-7-chloro-1H-imidazo[4,5-c]pyridin-4-amine], the pIC50 in assay [1] is 5.41; on NSD2 [1-1365] (setting [4]), 6.00 to 8.00.

Consider `COc1ccc(-c2cc(Cn3cnc4c(N)ncnc43)c(N3CCC[C@@](C)(N)C3)cn2)cc1F` [Example 20, (R)-9-((5-(3-amino-3-methylpiperidin-1-yl)-2-(3-fluoro-4-methoxyphenyl)pyridin-4-yl)methyl)-9H-purin-6-amine], for which the values for the pIC50 (in assay [1]; at NSD2 [1-1365] (setting [4])) were 5.53 and 6.00 to 8.00, respectively.

For the compound `COc1ccc(-c2cc(Cn3cnc4c(N)nccc43)c(N3CCC[C@@H](N)C3)cn2)cc1F` [Example 21, (R)-1-((5-(3-aminopiperidin-1-yl)-2-(3-fluoro-4-methoxyphenyl)pyridin-4-yl)methyl)-1H-imidazo[4,5-c]pyridin-4-amine], the pIC50 is 4.68 in assay [1] and 6.00 to 8.00 on NSD2 [1-1365] (setting [4]).

Regarding `Nc1ncnc2c1ncn2Cc1cc(-c2ccc(F)c(F)c2)ncc1N1CCC[C@](N)(COC2CC2)C1` [Example 22, (R)-9-((5-(3-amino-3-(cyclopropoxymethyl)piperidin-1-yl)-2-(3,4-difluorophenyl)pyridin-4-yl)methyl)-9H-purin-6-amine], the pIC50 was 6.67 in assay [1] and 8.00 to 9.00 at NSD2 [1-1365] (setting [4]).

Turning to `COC[C@@]1(N)CCCN(c2cnc(-c3ccc(F)c(F)c3)cc2Cn2cnc3c(N)ncnc32)C1` [Example 23, (R)-9-((5-(3-amino-3-(methoxymethyl)piperidin-1-yl)-2-(3,4-difluorophenyl)pyridin-4-yl)methyl)-9H-purin-6-amine], the pIC50 in assay [1] is 6.80; on NSD2 [1-1365] (setting [4]) it was 8.00 to 9.00.

In the case of `COC[C@@]1(N)CCCN(c2cnc(-c3cccc(F)c3)cc2Cn2cnc3c(N)ncnc32)C1` [Example 24, (R)-9-((5-(3-amino-3-(methoxymethyl)piperidin-1-yl)-2-(3-fluorophenyl)pyridin-4-yl)methyl)-9H-purin-6-amine], the pIC50 in assay [1] was 6.35; at NSD2 [1-1365] (setting [4]), 8.00 to 9.00.

Take `Nc1ncnc2c1ncn2Cc1cc(-c2cc(F)c(F)cc2C(F)F)ncc1N1CCC[C@](N)([C@@H]2COCCO2)C1` [Example 291, 9-((5-((R)-3-amino-3-((R)-1,4-dioxan-2-yl)piperidin-1-yl)-2-(2-(difluoromethyl)-4,5-difluorophenyl)pyridin-4-yl)methyl)-9H-purin-6-amine]: the pIC50 in assay [2] was 5.77; at NSD2 [1-1365], 6.00 to 8.00; in assay [3], 6.09.

Consider `CC(=C(F)F)[C@@]1(N)CCCN(c2cnc(-c3ccc(F)c(F)c3)cc2Cn2cnc3c(N)ncnc32)C1` [Example 293, (S)-9-((5-(3-amino-3-(1,1-difluoroprop-1-en-2-yl)piperidin-1-yl)-2-(3,4-difluorophenyl)pyridin-4-yl)methyl)-9H-purin-6-amine], for which the pIC50 was 5.49 in assay [2], 6.00 to 8.00 on NSD2 [1-1365] and 5.89 in assay [3].

In the case of `Nc1ncnc2c1ncn2Cc1cc(-c2ccc(F)c(F)c2)ncc1N1CCC[C@](N)([C@H](O)C(F)(F)F)C1` [Example 299, (S)-1-((R)-3-amino-1-(4-((6-amino-9H-purin-9-yl)methyl)-6-(3,4-difluorophenyl)pyridin-3-yl)piperidin-3-yl)-2,2,2-trifluoroethan-1-ol], the pIC50 was 5.01 in assay [2], 6.00 to 8.00 at NSD2 [1-1365] and 5.94 in assay [3].

Regarding `C#C[C@@]1(N)CCCN(c2cnc(-c3ccc(F)c(F)c3)cc2Cn2cnc3c(N)ncnc32)C1` [Example 304, (S)-9-((5-(3-amino-3-ethynylpiperidin-1-yl)-2-(3,4-difluorophenyl)pyridin-4-yl)methyl)-9H-purin-6-amine], the pIC50 is 6.23 in assay [2], 6.00 to 8.00 on NSD2 [1-1365] and 7.00 in assay [3].

With `COc1ccc(-c2cc(Cn3cnc4c(N)ncnc43)c(N3CCC[C@](N)(C(F)F)C3)cn2)cc1F` [Example 305, (R)-9-((5-(3-amino-3-(difluoromethyl)piperidin-1-yl)-2-(3-fluoro-4-methoxyphenyl)pyridin-4-yl)methyl)-9H-purin-6-amine], the pIC50 is 5.32 in assay [2], 6.00 to 8.00 on NSD2 [1-1365] and 5.47 in assay [3].
